One data set deals with Rat FAAH (Rattus norvegicus (Rat), UniProt P97612). Put plainly: In vitro rat FAAH radiometric assay. Format: biochemical. As to conditions: rat brain homogenate, 10 min pre-incubation at 37° C.; read-out: r-FAAH IC50. The protocol: In Vitro Rat FAAH Radiometric Assay
Rat FAAH was prepared from male Sprague Dawley rat brains, homogenized in a potter in 20 mM of Tris HCl pH 7.4, 0.32 M sucrose.
The radiometric assay used to measure FAAH activity was performed in Eppendorf tubes: 50 μg of total rat brain homogenate were pre-incubated in 445.5 μL of assay buffer (50 mM Tris-HCl pH 7.4, 0.05% Fatty acid-free-bovine serum albumin (BSA)) with 4.5 μL of inhibitor (at appropriate concentration in DMSO) or DMSO alone (to measure FAAH total activity) for 10 min at 37° C. The blank (no activity control) was prepared using 445.5 μL of assay buffer and 4.5 μL of DMSO without the 50 μg of total rat brain homogenate.
After 10 min of pre-incubation with test compounds, the reaction was started by adding of 50 μL of substrate and incubating for 30 min at 37° C. The substrate was prepared in assay buffer in order to achieve the final concentration of 1 μM arachidonoyl ethanolamide (Cayman Chemical N. 90050) and 0.6 nM anandamide [ethanolamine-1-^3H] (American Radiolabeled Chemicals Inc, ART. 0626, Conc. 1 mCi/mL, S.A. 60 Ci/mmol). The reaction was stopped by adding cold 1:1 CHCl3/MeOH. After 10 min of centrifugation (845×g at 4° C.) 600 μL of aqueous phase were transferred into scintillation vials previously filled with 3 mL of scintillation fluid (Ultima Gold™, Perkin Elmer Inc., Cat. 6013329). Radioactivity was measured by liquid scintillation counting (MicroBeta2 LumiJET Perkin Elmer Inc.).
(§1) Concentrations causing half-maximal inhibition of FAAH, IC50 values, were determined by non-linear regression analysis of the Log [concentration]/response curves generated with mean replicate values using a four parameter Hill equation curve fitting with GraphPad Prism 5 (GraphPad Software Inc., CA—USA).

A further data set addresses human FAAH-1 (Homo sapiens (Human), UniProt O00519). Put plainly: In vitro human FAAH fluorescent assay. Format: biochemical. Particulars: human FAAH-1 membrane preparation from HEK-293, 50 min pre-incubation at 37° C.; read-out: h-FAAH IC50. The protocol:
In Vitro Human FAAH Fluorescent Assay
Human recombinant FAAH was obtained from a HEK-293 cell line stably overexpressing human FAAH-1 enzyme. Cells were grown in Dulbecco's Modified Eagle Medium (DMEM) medium containing 10% FBS, 1% pen/strep, 1% glutamine and 500 μg/mL G418. To obtain membrane preparation cells were scraped off with cold PBS and collected by centrifugation (500×g, 10 min, 4° C.); the cell pellet was re-suspended in 20 mM Tris-HCl pH 7.4, 0.32M sucrose, disrupted by sonication (10 pulses, 5 times) and centrifuged (800×g, 15 min, 4° C.); the collected supernatant was centrifuged at 105,000×g for 1 h at 4° C. and the pellet was re-suspended in PBS.
The fluorescent assay to measure FAAH activity was performed in 96 wells black plates: 2.5 μg of human FAAH-1 membrane preparation were pre-incubated for 50 min at 37° C., in 180 µL of assay buffer (50 mM TrisHCl pH 7.4, 0.05% Fatty acid-free-BSA) with 10 μL of inhibitor (at appropriate concentration in DMSO) or 10 μL DMSO to measure FAAH total activity. The background (no activity) samples were prepared using 180 μL of assay buffer without human FAAH-1 and 10 μL of DMSO. The reaction was then started by the addition of 10 μL of a 40 μM substrate solution (N. 10005098, Cayman Chemical) dissolved in ethanol, and used at a final concentration of 2 μM. The reaction was carried out for 30 min at 37° C. and fluorescence was measured with a Tecan Infinite M200 nanoquant plate reader (excitation wavelength 350 nm/emission wavelength 460 nm).
as §1

A short description of data set [1]: Aqueous kinetic solubility assay. Format: physicochemical. Particulars: phosphate buffered saline, aqueous buffer, kinetic from dmso stock, PBS pH 7.4, target 250 μM, 2.5% DMSO, 25° C. The protocol: Aqueous Kinetic Solubility Assay
The aqueous kinetic solubility was determined from a 10 mM DMSO stock solution of test compound in Phosphate Buffered Saline (PBS) at pH 7.4.
The study was performed by incubation of an aliquot of 10 mM DMSO stock solution in PBS (pH 7.4) at a target concentration of 250 μM resulting in a final concentration of 2.5% DMSO. The incubation was carried out under shaking at 25° C. for 24 h followed by centrifugation. The supernatant was analyzed by UPLC/MS for the quantification of dissolved compound by UV at a specific wavelength (215 nm).
The aqueous kinetic solubility (in μM) was calculated by dividing the peak area of the supernatant by the peak area of the test compound reference and further multiplied by the concentration of the test compound reference and dilution factor.
The UPLC/MS analyses were performed on a Waters ACQUITY UPLC/MS system consisting of a SQD (Single Quadrupole Detector) Mass Spectrometer equipped with an Electrospray Ionization interface and a Photodiode Array Detector. The PDA range was 210-400 nm. The analyses were run on an ACQUITY UPLC BEH C18 column (50×2.1 mmID, particle size 1.7 m) with a VanGuard BEH C18 pre-column (5×2.1 mmID, particle size 1.7 μm). The mobile phase was 10 mM NH4OAc in H2O at pH 5 adjusted with AcOH (A) and 10 mM NH4OAc in MeCN—H2O (95:5) at pH 5 (B). Electrospray ionization in positive and negative mode was applied in the mass scan range 100-500 Da.

The nature of data set [2]: Pharmacokinetic experiment in cannulated Sprague-Dawley rats (PO and IV). Format: in vivo. As to conditions: plasma, rat; for bioavailability: PO 10 mg/kg vs IV 3 mg/kg, read-out: Oral bioavailability (F %). The protocol:
Pharmacokinetic Experiment and Analysis
Compounds were administered orally (PO) and intravenously (IV) to cannulated Sprague-Dawley rats at 10 and 3 mg/kg, respectively. Vehicle was: PEG400/Tween 80/Saline solution at 10/10/80 (% in volume), respectively. Three animals per dose were treated. Blood samples at 0, 15, 30, 60, 120, 240, 480 and 1440 min after administration were collected for PO arm. Blood samples at 0, 5, 15, 30, 60, 120 and 240 min after administration were collected for IV arm. Plasma was separated from blood by centrifugation for 15 min at 3500 rpm a 4° C., collected in a Eppendorf tube and frozen (−80° C.). Control animals treated with vehicle only were also included in the experimental protocol.
Preparation of Samples, Standard Curve and QC Samples for UPLC-MS Analysis
Samples were thawed in an ice bath and after a short centrifugation transferred (50 μL) into a 96-deepwell plate and added with 150 μL of acetonitrile spiked with 200 nM Warfarin (the Internal Standard, I.S.). After agitation (3 min) the plate was centrifuged at 3000 g for 10 min at 4° C. 80 μL of supernatant was then transferred in a 96-well plate and added with 80 μL of water. Standard compound was spiked in neat solvent (PBS pH 7.4 added with 10% acetonitrile) to prepare a calibration curve over the 1 nM-10 μM range. Three quality controls (QCs) samples were also prepared spiking the compound in blank rat plasma to final 20, 200 and 2000 nM concentrations. Calibrators and QCs were crashed with acetonitrile spiked with the I.S. as described for the plasma samples. Dosing solutions, previously diluted 2000 fold in the neat solvent were also included in the samples and tested.
Compounds plasma levels were monitored on a Xevo TQ UPLC-MS/MS system (Waters, Milford USA), using the calibration curve and the internal standard (Warfarin). Chromatography was carried out on a Acquity BEH C18 column (2.1×50 mmID, 1.7 m particle size, Waters, Milford USA). Flow rate was 0.5 mL/min. The mobile phase was (A) H2O/0.1% formic acid; (B) MeCN/0.1% formic acid. A linear gradient was applied from 5 to 100% B in 2 min. 3 μL of each sample were loaded on column. MS parameters and multiple reaction monitoring (MRM) transitions were carefully tuned for each compound. Plasma levels data were analyzed using PKSolutions excel application (Summit Research Service, USA) to derive the most important pharmacokinetic parameters.
The oral bioavailability (F %) data, and the Area Under the Curve (AUC) data (ng×min/mL) corresponding to the IV (3 mg/kg) and PO (10 mg/kg) dose of selected compounds described in the Examples are reported in Table 3. Their F % data are in the range from 35 to 87.

Where [3] appears, read: IV, 3 mg/kg, read-out: AUC IV (3 mg/kg) (converted).
[4] abbreviates: PO, 10 mg/kg, read-out: AUC PO (10 mg/kg) (converted).

The values below come from patent publication US9822068B2, “Inhibitors of fatty acid amide hydrolase (FAAH) enzyme with improved oral bioavailability and their use as medicaments” (THE REGENTS OF THE UNIVERSITY OF CALIFORNIA, priority 2014, dated 2017).

≈ marks a conversion by molar mass, not a printed value. Where two headings read alike, the source gives them in different places.

Chain of Rat FAAH (P97612 whole entry): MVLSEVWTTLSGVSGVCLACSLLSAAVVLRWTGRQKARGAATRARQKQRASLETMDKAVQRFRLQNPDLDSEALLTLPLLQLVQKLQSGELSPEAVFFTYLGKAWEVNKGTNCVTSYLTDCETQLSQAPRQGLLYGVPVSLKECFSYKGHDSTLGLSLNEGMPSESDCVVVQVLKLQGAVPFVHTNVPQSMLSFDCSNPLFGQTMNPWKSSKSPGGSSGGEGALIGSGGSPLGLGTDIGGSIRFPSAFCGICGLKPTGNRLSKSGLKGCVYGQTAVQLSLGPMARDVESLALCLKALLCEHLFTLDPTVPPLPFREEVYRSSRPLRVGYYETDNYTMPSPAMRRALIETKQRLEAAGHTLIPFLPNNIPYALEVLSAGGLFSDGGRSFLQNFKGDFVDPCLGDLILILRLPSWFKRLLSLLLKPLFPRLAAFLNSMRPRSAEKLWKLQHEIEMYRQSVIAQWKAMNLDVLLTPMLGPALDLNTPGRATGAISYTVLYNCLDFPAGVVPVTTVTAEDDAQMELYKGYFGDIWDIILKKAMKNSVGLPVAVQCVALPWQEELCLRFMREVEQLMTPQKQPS
Chain of human FAAH-1 (O00519 whole entry): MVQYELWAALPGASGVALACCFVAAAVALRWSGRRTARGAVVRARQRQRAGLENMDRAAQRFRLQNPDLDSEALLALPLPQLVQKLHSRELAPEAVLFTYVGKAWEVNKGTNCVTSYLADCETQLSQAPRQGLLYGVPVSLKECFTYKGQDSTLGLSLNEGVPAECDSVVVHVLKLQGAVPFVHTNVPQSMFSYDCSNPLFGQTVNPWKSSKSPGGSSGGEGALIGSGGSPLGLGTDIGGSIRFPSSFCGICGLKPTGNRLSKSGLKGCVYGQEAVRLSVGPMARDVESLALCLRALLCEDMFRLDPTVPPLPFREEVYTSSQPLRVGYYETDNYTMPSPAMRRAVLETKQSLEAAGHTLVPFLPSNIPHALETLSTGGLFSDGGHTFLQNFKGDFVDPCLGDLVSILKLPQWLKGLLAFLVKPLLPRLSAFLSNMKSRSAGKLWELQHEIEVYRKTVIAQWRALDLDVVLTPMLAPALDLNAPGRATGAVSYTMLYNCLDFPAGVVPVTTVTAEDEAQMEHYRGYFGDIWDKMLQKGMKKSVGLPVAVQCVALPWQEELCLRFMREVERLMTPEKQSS

Regarding `CNC(=O)c1cccc(-c2cc(OC(=O)NC3CCCCC3)ccc2F)c1` [Example 1, [4-fluoro-3-[3-(methylcarbamoyl)phenyl]phenyl]N-cyclohexylcarbamate], the figures for the IC50 at Rat FAAH and at human FAAH-1 were 1.4 nM and 12 nM, respectively. Moreover, in data set [1], the solubility (kinetic) at 24 h came to 28 µM (≈ 10.4 µg/mL). Further, the bioavailability in data set [2] came out at 87%. Besides, the results for the AUC in data set [2] (setting [3]) and in data set [2] (setting [4]) were 1280 ng·h/mL and 3700 ng·h/mL, respectively.

As for `NS(=O)(=O)c1cccc(-c2cc(OC(=O)NC3CCCCC3)ccc2F)c1` [Example 2, [4-fluoro-3-(3-sulfamoylphenyl)phenyl] N-cyclohexylcarbamate], the figures for the IC50 at Rat FAAH and at human FAAH-1 were 0.7 nM and 11 nM, respectively. This compound also registered a kinetic solubility at 24 h in data set [1] of 28 µM (≈ 11 µg/mL). For the same compound, the bioavailability in data set [2] turned out to be 35%. Also, the figures for the AUC in data set [2] (setting [3]) and in data set [2] (setting [4]) were 746 ng·h/mL and 867 ng·h/mL, respectively.

Turning to `CNC(=O)c1cccc(-c2cc(OC(=O)NC3CCCC3)ccc2F)c1` [Example 4, [4-fluoro-3-[3-(methylcarbamoyl)phenyl]phenyl] N-cyclopentylcarbamate], the concentration for half-maximal inhibition (IC50) at Rat FAAH stood at 3.9 nM; on human FAAH-1 it was 2.9 nM. Also, the solubility (kinetic) at 24 h in data set [1] is 96 µM (≈ 34.2 µg/mL).

Turning to `NC(=O)c1cccc(-c2cc(OC(=O)NC3CCCC3)ccc2F)c1` [Example 5, [3-(3-carbamoylphenyl)-4-fluoro-phenyl] N-cyclopentylcarbamate], the figures for the IC50 on Rat FAAH and on human FAAH-1 were 2.9 nM and 0.84 nM, respectively.

With `CNC(=O)c1cccc(-c2cc(OC(=O)NC3CCC3)ccc2F)c1` [Example 6, [4-fluoro-3-[3-(methylcarbamoyl)phenyl]phenyl] N-cyclobutylcarbamate], the half-maximal inhibitory concentration (IC50) at Rat FAAH was determined as 5.1 nM; on human FAAH-1 it was 6.6 nM. The compound also displayed a solubility (kinetic) at 24 h in data set [1] of 183 µM (≈ 62.7 µg/mL).

Regarding `CS(=O)(=O)c1cccc(-c2cc(OC(=O)NC3CCCCC3)ccc2F)c1` [Example 7, [4-Fluoro-3-(3-methylsulfonylphenyl)phenyl] N-cyclohexylcarbamate], the IC50 on Rat FAAH amounted to 8.9 nM; on human FAAH-1, 4.9 nM.

Regarding `NS(=O)(=O)c1cccc(-c2cc(OC(=O)NC3CCCCC3)ccc2OC(F)F)c1` [Example 10, [4-(difluoromethoxy)-3-(3-sulfamoylphenyl)phenyl] N-cyclohexylcarbamate], the half-inhibitory concentration (IC50) worked out at 8.2 nM at Rat FAAH and 9.2 nM at human FAAH-1.

On to `CS(=O)(=O)c1cccc(-c2cc(OC(=O)NC3CCCCC3)ccc2OC(F)F)c1` [Example 11, [4-(difluoromethoxy)-3-(3-methylsulfonylphenyl)phenyl] N-cyclohexylcarbamate], for which the IC50 came out at 2.9 nM on Rat FAAH and 6.5 nM on human FAAH-1. For the same compound, the solubility (kinetic) at 24 h in data set [1] was found to be 12 µM (≈ 5.27 µg/mL).

In the case of `NC(=O)c1cccc(-c2cc(F)cc(OC(=O)NC3CCCCC3)c2)c1` [Example 12, [3-(3-Carbamoylphenyl)-5-fluoro-phenyl] N-cyclohexylcarbamate], the IC50 stood at 0.23 nM at Rat FAAH and 0.87 nM on human FAAH-1.

Turning to `NC(=O)c1cccc(-c2cccc(OC(=O)NC3CCCCC3)c2F)c1` [Example 13, [3-(3-Carbamoylphenyl)-2-Fluoro-Phenyl] N-Cyclohexylcarbamate], the IC50 came to 1.9 nM on Rat FAAH and 0.89 nM on human FAAH-1.

As to `CNC(=O)c1cccc(-c2cccc(OC(=O)NC3CCCCC3)c2)c1` [[drawing 127] comparison compound, reference compound], the solubility (kinetic) at 24 h in data set [1] stood at 18 µM (≈ 6.34 µg/mL). The bioavailability in data set [2] was determined as 30%. Also, the AUC was 1520 ng·h/mL in data set [2] (setting [3]) and 1500 ng·h/mL in data set [2] (setting [4]).

`NS(=O)(=O)c1cccc(-c2cccc(OC(=O)NC3CCCCC3)c2)c1` [[drawing 129] comparison compound, reference compound] registered a solubility (kinetic) at 24 h in data set [1] of 7 µM (≈ 2.62 µg/mL). Moreover, in data set [2], the bioavailability was 21%. Besides, the figures for the AUC in data set [2] (setting [3]) and in data set [2] (setting [4]) were 725 ng·h/mL and 502 ng·h/mL, respectively.

Regarding `NC(=O)c1cccc(-c2cccc(OC(=O)NC3CCC3)c2)c1` [[drawing 131] comparison compound, reference compound], in data set [1], the kinetic solubility at 24 h is 6 µM (≈ 1.86 µg/mL). Besides, the bioavailability in data set [2] came to 39%. For the same compound, the figures for the AUC in data set [2] (setting [3]) and in data set [2] (setting [4]) were 891 ng·h/mL and 1160 ng·h/mL, respectively.

In the case of `NC(=O)c1cccc(-c2cccc(OC(=O)NC3CCCCC3)c2)c1` [[drawing 135] comparison compound, reference compound], the solubility (kinetic) at 24 h in data set [1] turned out to be 1 µM (≈ 0.338 µg/mL). In data set [2], the bioavailability turned out to be 5%. Besides, the AUC is 2560 ng·h/mL in data set [2] (setting [3]) and 446 ng·h/mL in data set [2] (setting [4]).

Usually IC50 stands for the concentration that inhibits the measured activity by half. Usually solubility (kinetic) stands for solubility judged after dilution from a stock solution rather than from solid. Broadly, the bioavailability is the share of a dose that reaches the circulation, judged against a reference dose that is usually intravenous.
